Assay results from patent US8952024B2, “Herbicidal pyrimidone derivatives” (E I du Pont de Nemours and Company, priority 2009, dated 2015).

Legend:
Type in all cases: in vivo
[1] = system: wheat (Triticum aestivum); test: Test A pre-/postemergence plant response
In short: (§1)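 Pre: directed soil spray on seeded loam/sand blend. Post: same formulation (non-phytotoxic solvent + surfactant) on 2–10 cm plants, 1–2 leaf stage. Greenhouse ~10 d; visual injury score 0–100 vs untreated.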

[2] = system: velvetleaf (Abutilon theophrasti); test: Test A pre-/postemergence plant response
In short: as §1

[3] = system: barnyardgrass (Echinochloa crus-galli); test: Test A pre-/postemergence plant response
In short: as §1

[4] = system: morningglory (Ipomoea spp.); test: Test A pre-/postemergence plant response
In short: as §1

corn (Zea mays) = test: Test A pre-/postemergence plant response
In short: as §1

[5] = system: giant foxtail (Setaria faberii); test: Test A pre-/postemergence plant response
In short: as §1

[6] = system: pigweed (Amaranthus retroflexus); test: Test A pre-/postemergence plant response
In short: as §1

[7] = system: large crabgrass (Digitaria sanguinalis); test: Test A pre-/postemergence plant response
In short: as §1

[8] = system: winter barley (Hordeum vulgare); test: Test B postemergence plant response
In short: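 Plants grown in peat/vermiculite medium were sprayed postemergence at 2–18 cm height (1- to 4-leaf stage). After 13–15 days in the greenhouse, response was rated visually against untreated controls on a 0–100 scale (0 no effect, 100 complete control).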

[9] = system: barnyardgrass (Echinochloa crus-galli); test: Test B flooded paddy test; details: for Plant response rating, Barnyardgrass: Flood (flooded paddy test), 13 to 15 days
In short: (§2)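 Seedlings reaching 2 leaves are flooded 3 cm deep; test material is delivered to that water, which stays at the same depth. Plants remain in a greenhouse 13–15 days and are then scored by eye versus controls from 0 to 100.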

rice (Oryza sativa) = test: Test B flooded paddy test; details: for Plant response rating, Rice: Flood (flooded paddy test), 13 to 15 days
In short: as §2

[10] = system: umbrella sedge (Cyperus difformis); test: Test B flooded paddy test; details: for Plant response rating, Sedge, Umbrella: Flood (flooded paddy test), 13 to 15 days
In short: as §2

[11] = system: ducksalad (Heteranthera limosa); test: Test B flooded paddy test; details: for Plant response rating, Ducksalad: Flood (flooded paddy test), 13 to 15 days
In short: as §2

[12] = Postemergence, 125 g ai/ha, 0 to 100 scale where 0 is no effect and 100 is complete control
[13] = Postemergence, 500 g ai/ha, 0 to 100 scale, 0 = no effect, 100 = complete control, approx. ten days
[14] = Preemergence, 125 g ai/ha, 0 to 100 scale, 0 = no effect, 100 = complete control
[15] = Preemergence, 500 g ai/ha, visual injury, 0 to 100 scale (0 no effect, 100 complete control), approx. ten days
[16] = 250 g ai/ha, flooded paddy test, visual rating on 0 to 100 scale (0 no effect, 100 complete control) after 13 to 15 days
[17] = 62 g ai/ha, scale of 0 to 100 where 0 is no effect and 100 is complete control
[18] = 125 g ai/ha, scale 0 to 100, 0 is no effect, 100 is complete control
[19] = Flood, 31 g ai/ha, scale 0 to 100 (0 no effect, 100 complete control)

In the case of `COCCn1c(-c2cccs2)ncc(C(=O)C2=C(O)CCCC2=O)c1=O` [Compound 108], the “Plant response rating, Wheat” value [1, 12] is reported as 0, the “Plant response rating, Wheat” value [1, 13] is reported as 0 and the “Plant response rating, Wheat” value [1, 14] is reported as 0. For the same compound, the “Plant response rating, Wheat” value [1, 15] was 0, the “Plant response rating, Velvetleaf” value [2, 12] was 100 and the “Plant response rating, Velvetleaf” value [2, 13] was 100. The “Plant response rating, Velvetleaf” value [2, 14] was 80, the “Plant response rating, Velvetleaf” value [2, 15] was 90 and the “Plant response rating, Barnyardgrass” value [3, 12] was 90. The “Plant response rating, Barnyardgrass” value [3, 13] was 90, the “Plant response rating, Barnyardgrass” value [3, 14] was 30 and the “Plant response rating, Barnyardgrass” value [3, 15] was 90. The “Plant response rating, Morningglory” value [4, 12] was 100, the “Plant response rating, Morningglory” value [4, 13] was 100 and the “Plant response rating, Morningglory” value [4, 14] was 80. For the same compound, the “Plant response rating, Morningglory” value [4, 15] was 90, the “Plant response rating, Corn” value (corn (Zea mays); [12]) was 0 and the “Plant response rating, Corn” value (corn (Zea mays); [13]) was 40. For the same compound, the “Plant response rating, Corn” value (corn (Zea mays); [14]) was 0, the “Plant response rating, Corn” value (corn (Zea mays); [15]) was 0 and the “Plant response rating, Foxtail, Giant” value [5, 12] was 60. For the same compound, the “Plant response rating, Foxtail, Giant” value [5, 13] was 90, the “Plant response rating, Foxtail, Giant” value [5, 14] was 30 and the “Plant response rating, Foxtail, Giant” value [5, 15] was 40. The “Plant response rating, Pigweed” value [6, 12] was 100, the “Plant response rating, Pigweed” value [6, 13] was 100 and the “Plant response rating, Pigweed” value [6, 14] was 90. The “Plant response rating, Pigweed” value [6, 15] was 100, the “Plant response rating, Crabgrass, Large” value [7, 12] was 90 and the “Plant response rating, Crabgrass, Large” value [7, 13] was 90. The “Plant response rating, Crabgrass, Large” value [7, 14] was 70, the “Plant response rating, Crabgrass, Large” value [7, 15] was 90 and the “Plant response rating, Barley” value ([8]; 31 g ai/ha, postemergence, scale 0 to 100, 0 is no effect, 100 is complete control) was 0. The “Barley plant response rating (0 to 100 scale)” value ([8]; 62 g ai/ha, postemergence, 0 is no effect, 100 is complete control, 13 to 15 days) was 0, the “Plant response rating, Barley” value ([8]; Postemergence, 125 g ai/ha, scale 0 to 100 (0 no effect, 100 complete control)) was 0 and the “Plant response rating, Barley” value ([8]; Postemergence, 250 g ai/ha, scale 0 to 100 (0 no effect, 100 complete control)) was 0. For the same compound, the “Plant response rating, Flood, Barnyardgrass” value [9, 16] was 30, the “Plant response rating, Barnyardgrass” value [9, 17] was 0 and the “Plant response rating, Barnyardgrass” value [9, 18] was 15. The “Barnyardgrass plant response rating” value [9, 19] was 0, the “Plant response rating, Flood, Rice” value (rice (Oryza sativa); [16]) was 10 and the “Plant response rating, Rice” value (rice (Oryza sativa); [17]) was 0. For the same compound, the “Plant response rating, Rice” value (rice (Oryza sativa); [18]) was 0, the “Rice plant response rating” value (rice (Oryza sativa); [19]) was 0 and the “Plant response rating, Flood, Sedge, Umbrella” value [10, 16] was 95. For the same compound, the “Plant response rating, Sedge, Umbrella” value [10, 17] was 40, the “Plant response rating, Sedge, Umbrella” value [10, 18] was 60 and the “Sedge, Umbrella plant response rating” value [10, 19] was 0. The “Plant response rating, Flood, Ducksalad” value [11, 16] was 70, the “Plant response rating, Ducksalad” value [11, 17] was 50 and the “Plant response rating, Ducksalad” value [11, 18] was 60. For the same compound, the “Ducksalad plant response rating” value [11, 19] was 40.
